# Results taken from ChEMBL document CHEMBL1147725, “Identification and biological characterization of 6-aryl-7-isopropylquinazolinones as novel TRPV1 antagonists that are effective in models of chronic pain” (J Med Chem, 2006).
# Biological target: Transient receptor potential cation channel subfamily V member 1 (Homo sapiens, UniProt Q8NER1)
# Experiment: Inhibition of calcium influx evoked by capsaicin in human TRPV1 expressing cells by fluorescence assay
# Format: functional
# Sequence of Transient receptor potential cation channel subfamily V member 1 (Q8NER1 whole entry): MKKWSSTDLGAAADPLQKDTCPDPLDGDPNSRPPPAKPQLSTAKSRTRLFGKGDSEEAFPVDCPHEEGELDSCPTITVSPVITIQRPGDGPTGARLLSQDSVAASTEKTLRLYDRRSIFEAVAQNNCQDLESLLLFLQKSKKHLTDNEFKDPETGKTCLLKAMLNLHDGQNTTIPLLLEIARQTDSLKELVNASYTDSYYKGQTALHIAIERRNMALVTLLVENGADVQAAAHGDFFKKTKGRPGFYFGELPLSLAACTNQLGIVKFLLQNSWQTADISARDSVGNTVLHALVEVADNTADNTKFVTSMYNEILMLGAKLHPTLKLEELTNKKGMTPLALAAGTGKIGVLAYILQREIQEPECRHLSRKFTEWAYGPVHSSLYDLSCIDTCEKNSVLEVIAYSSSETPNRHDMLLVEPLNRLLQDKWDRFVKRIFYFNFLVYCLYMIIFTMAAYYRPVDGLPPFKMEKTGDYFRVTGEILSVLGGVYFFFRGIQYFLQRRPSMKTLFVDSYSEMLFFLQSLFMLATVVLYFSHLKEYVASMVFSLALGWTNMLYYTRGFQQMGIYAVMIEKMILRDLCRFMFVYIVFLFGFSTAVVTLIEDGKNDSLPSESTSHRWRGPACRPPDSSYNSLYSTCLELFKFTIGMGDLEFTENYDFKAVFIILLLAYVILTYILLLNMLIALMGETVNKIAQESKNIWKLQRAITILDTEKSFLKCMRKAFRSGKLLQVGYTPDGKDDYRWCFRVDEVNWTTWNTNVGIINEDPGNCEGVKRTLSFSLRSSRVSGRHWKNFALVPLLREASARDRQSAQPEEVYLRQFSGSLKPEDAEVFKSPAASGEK
row,Compound,IC50
1,Cc1nc(O)c2cc(-c3ccc(Cl)c(OC(C)C)c3)c(C(C)C)cc2n1,201 nM
2,CCOc1cc(-c2cc3c(=O)[nH]c(C)nc3cc2C(C)C)c(Cl)cc1Cl,37 nM
3,Cc1nc2cc(C(C)C)c(-c3ccc(Cl)c(F)c3)cc2c(=O)[nH]1,23 nM
4,Oc1cc2c(cc1O)CN(C(=S)NCCc1ccc(Cl)cc1)CCC2 [CAPSAZEPINE],334 nM
5,Cc1nc(O)c2cc(-c3ccc(Cl)c(OCC4CCC4)c3)c(C(C)C)cc2n1,144 nM
6,CCOc1cc(-c2cc3c(=O)[nH]c(C)nc3cc2C(C)C)ccc1Cl,12 nM
